Assay results: US20120184548A1, “CARBOXYLIC ACID ARYL AMIDES” (priority 2011, published 2012)

Assays:
[1] = molecular target: T1, Human DYRK1A (Homo sapiens, UniProt Q13627); experiment: DYRK1A Kinase TR-FRET (IMAP-Tb) Assay; type: biochemical; conditions: TR-FRET; ATP 70 μM; 37° C. for 60 minutes; averages of multiple runs; read-out: Enzyme IC50 DYRK1A
T1 construct: purchased Invitrogen PV3997

[2] = tested on: SW620 human colon cancer cells; experiment: SW620 Cell Viability Assay (CellTiter-Glo); type: cell-based; conditions: SW-620, 96 h, 4 days incubation, read-out: Cellular EC50 SW620
Protocol: 1. Cell Plate Preparation: SW620 human colon cancer cells (known to express DYRK1B), obtained from ATCC, were seeded into 96-well plates at […] in 50 μL of media. • Harvested the required number of cells (counts & viability determined by Guava Viacount). • Centrifuge cells to pellet and removed supernant. • Resuspended in growth media (50 μL/well) & pipetted thoroughly to break up clumps. • Setup for ˜100 wells/plate, therefore, VT=5 mL/plate @ 1.2×10^5 cells/mL. 1A. Some cells (S-) were allowed to attach for 24 hrs, serum starved for 48 hrs, and then followed with treatments of test compound.
Test Compound solution was prepared in regular corresponding media supplemented with serum
2. Test Compound Preparation: Test compounds were solubilized in either DMSO or media and prepared at various stock concentrations. • All compounds were incubated at 37° C. for 30 minutes and vortexed. • (5 mM stocks of test compound were prepared for non-soluble drugs)
3. Test Compound Plate Preparation:
• The 10 mM test compound stock was diluted to a concentration of 100× the final Cmax concentration. • Then the test compound stock is diluted 50-fold in media and/or second test compound for a final Cmax concentration in the test compound plate. • The Cmax in the test compound plate (2% DMSO) is 2-fold higher than the final Cmax in the cell plate (60 uL titrations were 1:3). 4. Viability Assay: This assay was performed as follows: • Transfer 50 μL of test compound solution per well from the test compound plate onto the cell plate prepared in Step #1. • Mix the plate with treated cells by pipetting up and down three times with 200 μL multi-channel pipet. • Incubate the cells in 5% CO2 incubator @ 37° C. for 4 days. • Run the CellTiter-Glo™ Luminescent Cell Viability Assay. The results of this assay, given as EC50 values, indicate the concentration of test compound that inhibits tumor cell proliferation by 50%.

[3] = molecular target: T2, Human DYRK1B (Homo sapiens, UniProt Q9Y463); experiment: DYRK1B Kinase TR-FRET (IMAP-Tb) Assay; type: biochemical; conditions: TR-FRET; ATP 70 μM; 37° C. for 60 minutes; averages of multiple runs; read-out: Enzyme IC50 DYRK1B
T2 construct: purchased Invitrogen PR8350B (former PV4649)
T2 sequence (Q9Y463 whole entry): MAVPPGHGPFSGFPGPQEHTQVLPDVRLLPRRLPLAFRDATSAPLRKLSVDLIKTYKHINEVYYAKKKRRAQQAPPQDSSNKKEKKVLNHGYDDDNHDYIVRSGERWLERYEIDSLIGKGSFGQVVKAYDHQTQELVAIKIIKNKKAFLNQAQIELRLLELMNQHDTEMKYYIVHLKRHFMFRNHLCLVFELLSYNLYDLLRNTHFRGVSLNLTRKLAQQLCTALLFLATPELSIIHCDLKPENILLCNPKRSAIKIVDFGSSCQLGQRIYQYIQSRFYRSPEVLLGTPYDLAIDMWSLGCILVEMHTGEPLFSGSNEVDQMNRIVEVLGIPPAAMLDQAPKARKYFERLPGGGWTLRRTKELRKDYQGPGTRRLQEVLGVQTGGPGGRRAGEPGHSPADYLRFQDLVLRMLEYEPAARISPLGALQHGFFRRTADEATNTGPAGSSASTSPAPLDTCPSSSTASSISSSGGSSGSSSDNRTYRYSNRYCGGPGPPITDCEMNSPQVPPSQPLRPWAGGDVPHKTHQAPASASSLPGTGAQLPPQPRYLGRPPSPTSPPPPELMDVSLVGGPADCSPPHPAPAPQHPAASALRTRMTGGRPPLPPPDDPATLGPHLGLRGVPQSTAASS

Question: For `COCCOc1cc2cc(C(=O)Nc3cc(C(=O)N[C@@H](CCN)c4ccccc4)ccc3Cl)c(=O)[nH]c2cc1OC` [Example 64, (S)-N-(5-(3-Amino-1-phenylpropylcarbamoyl)-2-chlorophenyl)-7-methoxy-6-(2-methoxyethoxy)-2-oxo-1,2-dihydroquinoline-3-carboxamide], which IC50 [1] is on record?
Answer: 186 nM

Question: What about the EC50 [2] of the same compound?
Answer: 9.2 µM

Question: What about the IC50 [3] of the same compound?
Answer: 253 nM
